Data as given in the NIST ThermoML archive (doi:10.1016/j.jct.2004.11.020).

Key:
[1] = xn = mol fraction of the nth substance listed; settings: 308.15 K, 101 kPa, Liquid; for speed of sound: Pulse-echo method
[2] = 308.15 K, 101.33 kPa, Liquid; for speed of sound: Pulse-echo method

CC(O)CCO (stereo unspecified) [1,3-butanediol] + O=C1CCCN1
[1]
Settings	excess molar volume [m3/mol]	speed of sound [m/s]	viscosity [mPa·s]
x2 = 0.0122	2e-09	–	–
x2 = 0.0261	–	1498	51.57
x2 = 0.0368	8e-09	–	–
x2 = 0.0526	–	1500.5	46.61
x2 = 0.055	2.3e-08	–	–
x2 = 0.0755	–	1502.8	44.87
x2 = 0.0812	3.4e-08	–	–
x2 = 0.0939	4.6e-08	–	–
x2 = 0.1	–	1504.8	40.88
x2 = 0.1079	5.5e-08	–	–
x2 = 0.1227	5.9e-08	–	–
x2 = 0.1447	6.3e-08	–	–
x2 = 0.1543	–	1509.2	36.15
x2 = 0.1594	6.7e-08	–	–
x2 = 0.1843	8.2e-08	–	–
x2 = 0.2041	–	1513.2	31.48
x2 = 0.2174	9.5e-08	–	–
x2 = 0.2396	1.02e-07	–	–
x2 = 0.2586	1.16e-07	–	–
x2 = 0.2859	1.25e-07	–	–
x2 = 0.3003	–	1521.1	26.19
x2 = 0.3054	1.31e-07	–	–
x2 = 0.3436	1.38e-07	–	–
x2 = 0.3606	1.42e-07	–	–
x2 = 0.3817	1.46e-07	–	–
x2 = 0.3932	–	1529.1	21.54
x2 = 0.4337	1.48e-07	–	–
x2 = 0.4571	1.49e-07	–	–
x2 = 0.4815	1.49e-07	–	–
x2 = 0.4985	–	1539	17.82
x2 = 0.519	1.48e-07	–	–
x2 = 0.5798	1.45e-07	–	–
x2 = 0.5931	1.41e-07	–	–
x2 = 0.5936	1.39e-07	–	–
x2 = 0.6015	1.38e-07	–	–
x2 = 0.603	–	1549	15.46
x2 = 0.6087	1.37e-07	–	–
x2 = 0.6204	1.33e-07	–	–
x2 = 0.6319	1.32e-07	–	–
x2 = 0.6419	1.32e-07	–	–
x2 = 0.6744	1.28e-07	–	–
x2 = 0.6903	1.22e-07	–	–
x2 = 0.6985	–	1559.4	13.17
x2 = 0.705	1.2e-07	–	–
x2 = 0.7245	1.15e-07	–	–
x2 = 0.7372	1.15e-07	–	–
x2 = 0.7679	1.07e-07	–	–
x2 = 0.7781	9.8e-08	–	–
x2 = 0.7935	–	1570.9	11.85
x2 = 0.7976	9.2e-08	–	–
x2 = 0.8132	8.3e-08	–	–
x2 = 0.8358	7.3e-08	–	–
x2 = 0.839	–	1576.8	10.81
x2 = 0.8994	–	1585.1	9.984
x2 = 0.9271	–	1589	9.739
x2 = 0.947	–	1592.3	9.44
x2 = 0.9774	–	1596.3	9.15

OCCCCO [1,4-butanediol]
[2]
Settings	mass density [kg/m3]	speed of sound [m/s]	viscosity [mPa·s]
–	1003.95	1577.8	47.38

CCC(O)CO (stereo unspecified) [1,2-butanediol]
[2]
Settings	mass density [kg/m3]	speed of sound [m/s]	viscosity [mPa·s]
–	988.25	1422.6	30.29

CCC(O)CO (stereo unspecified) [1,2-butanediol] + O=C1CCCN1
[1]
Settings	excess molar volume [m3/mol]	speed of sound [m/s]	viscosity [mPa·s]
x2 = 0.027	–	1426.7	28.33
x2 = 0.0473	1.3e-08	–	–
x2 = 0.0512	–	1430.5	27.12
x2 = 0.0621	1.8e-08	–	–
x2 = 0.0786	2.4e-08	–	–
x2 = 0.0797	–	1435.2	25.57
x2 = 0.0977	–	1438.2	24.38
x2 = 0.0991	2.8e-08	–	–
x2 = 0.113	3.2e-08	–	–
x2 = 0.1263	3.6e-08	–	–
x2 = 0.142	4e-08	–	–
x2 = 0.1464	–	1446.3	22.32
x2 = 0.162	4.4e-08	–	–
x2 = 0.1937	–	1454.3	20.82
x2 = 0.1973	4.7e-08	–	–
x2 = 0.2456	5e-08	–	–
x2 = 0.2794	5.2e-08	–	–
x2 = 0.3017	–	1472.5	17.81
x2 = 0.3213	5.3e-08	–	–
x2 = 0.3797	5.2e-08	–	–
x2 = 0.4034	5.1e-08	–	–
x2 = 0.4061	–	1490.3	15.69
x2 = 0.4544	5e-08	–	–
x2 = 0.4753	4.9e-08	–	–
x2 = 0.5014	4.7e-08	–	–
x2 = 0.5017	–	1507.5	14.09
x2 = 0.5226	4.4e-08	–	–
x2 = 0.5643	4.1e-08	–	–
x2 = 0.5966	3.8e-08	–	–
x2 = 0.5983	–	1524.7	12.68
x2 = 0.6244	3.6e-08	–	–
x2 = 0.6571	3.3e-08	–	–
x2 = 0.688	2.9e-08	–	–
x2 = 0.7038	–	1543.6	11.52
x2 = 0.71	2.6e-08	–	–
x2 = 0.7348	2.4e-08	–	–
x2 = 0.7619	2e-08	–	–
x2 = 0.7843	1.7e-08	–	–
x2 = 0.798	–	1561	10.78
x2 = 0.8061	1.4e-08	–	–
x2 = 0.8374	1.2e-08	–	–
x2 = 0.8484	–	1570.6	10.26
x2 = 0.8607	1.1e-08	–	–
x2 = 0.8753	1e-08	–	–
x2 = 0.8878	9e-09	–	–
x2 = 0.9038	–	1580.6	9.435
x2 = 0.9039	8e-09	–	–
x2 = 0.924	7e-09	–	–
x2 = 0.9319	–	1586.6	9.291
x2 = 0.9469	6e-09	–	–
x2 = 0.9512	–	1590.1	9.015
x2 = 0.9599	5e-09	–	–
x2 = 0.9738	–	1594.7	8.969
x2 = 0.9885	3e-09	–	–
x2 = 0.9955	2e-09	–	–

CC(O)C(C)O (stereo unspecified) [2,3-butanediol] + O=C1CCCN1
[1]
Settings	excess molar volume [m3/mol]	speed of sound [m/s]	viscosity [mPa·s]
x2 = 0.0199	1.9e-08	–	–
x2 = 0.0255	–	1458.7	46.85
x2 = 0.0339	3.3e-08	–	–
x2 = 0.0483	4.5e-08	–	–
x2 = 0.0507	–	1460.7	41.26
x2 = 0.0634	5.4e-08	–	–
x2 = 0.0737	6e-08	–	–
x2 = 0.0765	–	1463	39.43
x2 = 0.0885	7.5e-08	–	–
x2 = 0.1001	–	1466.3	37.32
x2 = 0.1008	8.2e-08	–	–
x2 = 0.1118	8.7e-08	–	–
x2 = 0.118	9.3e-08	–	–
x2 = 0.1313	9.9e-08	–	–
x2 = 0.1447	1.06e-07	–	–
x2 = 0.1489	–	1470.5	32.26
x2 = 0.1571	1.12e-07	–	–
x2 = 0.1702	1.17e-07	–	–
x2 = 0.185	1.29e-07	–	–
x2 = 0.1941	–	1475.2	28.87
x2 = 0.2191	1.39e-07	–	–
x2 = 0.2418	1.48e-07	–	–
x2 = 0.2675	1.54e-07	–	–
x2 = 0.2854	1.59e-07	–	–
x2 = 0.2955	–	1488.2	23.79
x2 = 0.3058	1.63e-07	–	–
x2 = 0.3226	1.67e-07	–	–
x2 = 0.3312	1.68e-07	–	–
x2 = 0.3459	1.71e-07	–	–
x2 = 0.3589	1.72e-07	–	–
x2 = 0.383	1.72e-07	–	–
x2 = 0.3899	–	1500.7	19.82
x2 = 0.3973	1.72e-07	–	–
x2 = 0.4043	1.73e-07	–	–
x2 = 0.4156	1.72e-07	–	–
x2 = 0.4506	1.71e-07	–	–
x2 = 0.4667	1.7e-07	–	–
x2 = 0.4926	1.69e-07	–	–
x2 = 0.5097	1.7e-07	–	–
x2 = 0.5261	1.7e-07	–	–
x2 = 0.5294	–	1520.3	16.06
x2 = 0.5431	1.67e-07	–	–
x2 = 0.5651	1.68e-07	–	–
x2 = 0.5844	1.65e-07	–	–
x2 = 0.5898	–	1529.2	14.65
x2 = 0.6052	1.6e-07	–	–
x2 = 0.6266	1.58e-07	–	–
x2 = 0.6501	1.52e-07	–	–
x2 = 0.6693	1.51e-07	–	–
x2 = 0.6894	1.45e-07	–	–
x2 = 0.6978	–	1546.9	12.54
x2 = 0.8089	–	1565.1	11.22
x2 = 0.8587	–	1573.7	10.53
x2 = 0.9067	–	1582	9.623
x2 = 0.9497	–	1590.4	9.337
x2 = 0.9702	–	1594.2	9.114

OCCCCO [1,4-butanediol] + O=C1CCCN1
[1]
Settings	excess molar volume [m3/mol]	speed of sound [m/s]	viscosity [mPa·s]
x2 = 0.0144	-1e-09	–	–
x2 = 0.0265	–	1579.3	44.47
x2 = 0.0335	-2e-09	–	–
x2 = 0.0524	–	1580.6	42.37
x2 = 0.0631	-5e-09	–	–
x2 = 0.0746	–	1581.5	40.73
x2 = 0.0859	-7e-09	–	–
x2 = 0.099	–	1582.3	39.16
x2 = 0.1034	-1.2e-08	–	–
x2 = 0.1244	-1.6e-08	–	–
x2 = 0.133	-1.8e-08	–	–
x2 = 0.1495	-2.2e-08	–	–
x2 = 0.1515	–	1583.7	35.63
x2 = 0.1707	-2.4e-08	–	–
x2 = 0.1835	-2.6e-08	–	–
x2 = 0.1968	-2.7e-08	–	–
x2 = 0.197	–	1585.2	32.87
x2 = 0.2205	-2.8e-08	–	–
x2 = 0.2428	-2.9e-08	–	–
x2 = 0.2649	-2.7e-08	–	–
x2 = 0.2863	-2.6e-08	–	–
x2 = 0.2914	–	1587.8	27.93
x2 = 0.3121	-2.6e-08	–	–
x2 = 0.3339	-2.2e-08	–	–
x2 = 0.3582	-2e-08	–	–
x2 = 0.384	-1.5e-08	–	–
x2 = 0.3911	–	1589.6	23.57
x2 = 0.4202	-1.1e-08	–	–
x2 = 0.4438	-9e-09	–	–
x2 = 0.4533	–	1590.3	–
x2 = 0.4656	-7e-09	–	–
x2 = 0.4771	-4e-09	–	–
x2 = 0.4954	-2e-09	–	–
x2 = 0.5159	-2e-09	–	–
x2 = 0.5237	–	1591.3	19.22
x2 = 0.527	0	–	–
x2 = 0.5409	1e-09	–	–
x2 = 0.5644	4e-09	–	–
x2 = 0.5753	6e-09	–	–
x2 = 0.5886	7e-09	–	–
x2 = 0.5997	–	1592.6	17.1
x2 = 0.6032	8e-09	–	–
x2 = 0.6155	1e-08	–	–
x2 = 0.6273	1.3e-08	–	–
x2 = 0.6452	2e-08	–	–
x2 = 0.6685	2.2e-08	–	–
x2 = 0.6788	2.3e-08	–	–
x2 = 0.6904	–	1593.7	14.81
x2 = 0.6925	2.4e-08	–	–
x2 = 0.7159	2.5e-08	–	–
x2 = 0.7338	2.6e-08	–	–
x2 = 0.7494	2.7e-08	–	–
x2 = 0.7878	–	1595	12.92
x2 = 0.8877	–	1596.8	10.74
x2 = 0.9305	–	1598	10.14
x2 = 0.9481	–	1598.5	9.772
x2 = 0.9741	–	1599.2	9.275

CC(O)C(C)O (stereo unspecified) [2,3-butanediol]
[2]
Settings	mass density [kg/m3]	speed of sound [m/s]	viscosity [mPa·s]
–	990.72	1456.6	51.38

CC(O)CCO (stereo unspecified) [1,3-butanediol]
[2]
Settings	mass density [kg/m3]	speed of sound [m/s]	viscosity [mPa·s]
–	991.28	1496	54.24

O=C1CCCN1 [2-pyrrolidinone]
[2]
Settings	mass density [kg/m3]	speed of sound [m/s]	viscosity [mPa·s]
–	1097.14	1600	8.922
